Here are results for one compound from PMC6487500 (Molecular imaging and biology : MIB : the official …, 2019).

The test system of one series is BT474 cells. Kind of series: Cell binding assay and specific binding. On the set-up: species or system human. Particulars: at 60 min.
A further series concerns BT474 xenografts. Briefly: Tissue distribution in mice bearing BT474 xenografts. The class given is in vivo, mouse. To be noted: BT474 xenograft mice, n = 5.
The mark [1] stands for this setting: 100 ± 20 μCi i.v., after PET/CT at 1 h.

`[68Ga+3].[Cl-].[Cl-].[Cl-]` [[^68Ga]GaCl3]: the “specific BT474 cell binding” value in the series with BT474 cells is 18.8 ± 2.5%. Further, in the series with BT474 xenografts (setting [1]), the “tissue distribution, contralateral muscle” value is listed as 1.2 ± 0.4 %ID/g; the “tissue distribution, liver” value is listed as 4.3 ± 1.3 %ID/g; the “tissue distribution, tumor uptake” value was 2.2 ± 1.7 %ID/g. For the same compound, the “tissue distribution, lungs” value with BT474 xenografts (100 ± 20 μCi i.v., at 1 h) came out at 4.2 ± 2.6 %ID/g. For the same compound, the “T/M ratio, tissue distribution” value in the series on BT474 xenografts (non-blocked, after PET/CT at 1 h) is on record as 1.7 ± 0.8.
